Results on 26 compounds are retold here after US20070249670A1, “Glycogen Phosphorylase Inhibitor Compounds and Pharmaceutical Compositions Thereof” (SMITHKLINE BEECHAM CORPORATION, priority 2004, published 2007).

The experiment has as its target T1, human liver glycogen phosphorylase a (HLGPa) (Homo sapiens, UniProt P06737).
T1 construct: creating a full-length cDNA fused at the 5′ end to codons for methionine-glycine-alanine-histidine; 6xHis tag (leader Met-Gly-Ala-His6-Gly-Gly) (N); made in house; host or cells: E. coli (bacterial expression plasmid pTXK1007LTev)
T1 sequence (P06737 2-847 limits assumed): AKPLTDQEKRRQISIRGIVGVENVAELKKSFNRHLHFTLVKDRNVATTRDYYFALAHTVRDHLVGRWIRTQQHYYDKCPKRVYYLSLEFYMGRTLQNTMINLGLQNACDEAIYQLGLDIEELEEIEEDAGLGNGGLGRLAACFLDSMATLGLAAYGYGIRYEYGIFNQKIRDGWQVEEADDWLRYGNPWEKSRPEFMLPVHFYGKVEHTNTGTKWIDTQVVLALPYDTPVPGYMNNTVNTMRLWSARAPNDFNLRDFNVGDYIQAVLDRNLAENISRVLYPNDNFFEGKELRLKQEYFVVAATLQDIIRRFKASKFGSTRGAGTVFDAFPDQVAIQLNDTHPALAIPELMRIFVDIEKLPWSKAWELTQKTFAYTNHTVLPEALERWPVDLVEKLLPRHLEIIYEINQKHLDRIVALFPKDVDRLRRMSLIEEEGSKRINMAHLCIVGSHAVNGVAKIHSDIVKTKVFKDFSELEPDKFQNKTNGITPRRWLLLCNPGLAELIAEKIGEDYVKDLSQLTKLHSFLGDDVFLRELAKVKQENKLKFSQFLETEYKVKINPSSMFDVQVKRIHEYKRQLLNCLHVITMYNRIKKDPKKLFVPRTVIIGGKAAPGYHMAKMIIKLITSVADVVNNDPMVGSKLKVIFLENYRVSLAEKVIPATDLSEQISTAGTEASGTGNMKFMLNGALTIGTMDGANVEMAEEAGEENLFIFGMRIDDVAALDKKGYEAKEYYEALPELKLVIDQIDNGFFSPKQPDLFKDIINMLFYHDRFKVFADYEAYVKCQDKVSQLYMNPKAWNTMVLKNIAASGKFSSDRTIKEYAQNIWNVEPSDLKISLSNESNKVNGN
The experiment can be described thus: Human liver glycogen phosphorylase a enzymatic activity assay (coupled, fluorescent resorufin readout, with and without 10 mM glucose). The format is biochemical. To be noted: human liver glycogen phosphorylase a; table does not say whether with or without 10 mM glucose.

For orientation: IC50 means the point on the concentration scale where inhibition reaches its midpoint. In turn, `Cc1cc(C)c(NC(=O)Nc2cc(-c3ccccc3)cnc2C(=O)N[C@H](C(=O)O)C2CCCCC2)c(C)c1` [Example 321, (2S)-Cyclohexyl({[5-phenyl-3-({[(2,4,6-trimethylphenyl)amino]carbonyl}amino)-2-pyridinyl]carbonyl}amino)ethanoic acid] yielded an IC50 of 150 nM.
In turn, `COc1ccc(-c2cnc(C(=O)N[C@H](C(=O)O)C3CCCCC3)c(NC(=O)Nc3c(C)cc(C)cc3C)c2)cc1` [Example 322, (2S)-Cyclohexyl({[5-[4-(methyloxy)phenyl]-3-({[(2,4,6-trimethylphenyl)amino]carbonyl}amino)-2-pyridinyl]carbonyl}amino)ethanoic acid] showed an IC50 of 83 nM.
To `COc1ccc(-c2cnc(C(=O)N[C@H](C(=O)O)[C@@H](C)OC(C)(C)C)c(NC(=O)Nc3c(C)cc(C)cc3C)c2)cc1` [Example 323, O-(1,1-dimethylethyl)-N-{[5-[4-(methyloxy)phenyl]-3-({[(2,4,6-trimethylphenyl)amino]carbonyl}amino)-2-pyridinyl]carbonyl}-L-threonine] belongs 170 nM.
As for `Cc1cc(C)c(NC(=O)Nc2cc(-c3ccc(F)c(F)c3)cnc2C(=O)N[C@H](C(=O)O)[C@@H](C)OC(C)(C)C)c(C)c1` [Example 324, N-{[5-(3,4-Difluorophenyl)-3-({[(2,4,6-trimethylphenyl)amino]carbonyl}amino)-2-pyridinyl]carbonyl}-O-(1,1-dimethylethyl)-L-threonine], the figure is 470 nM; as for `COc1ccc(-c2cnc(C(=O)NC3(C(=O)O)CCCCCC3)c(NC(=O)Nc3c(C)cc(C)cc3C)c2)cc1` [Example 325, 1-({[5-[4-(methyloxy)phenyl]-3-({[(2,4,6-trimethylphenyl)amino]carbonyl}amino)-2-pyridinyl]carbonyl}amino)cycloheptanecarboxylic acid], 31 nM; as for `O=C(Nc1c(Cl)cc(Cl)cc1Cl)Nc1c(C(=O)N[C@H](C(=O)O)C2CCCCC2)oc2cc(Br)ccc12` [Example 326, (2S)-({[6-Bromo-3-({[(2,4,6-trichlorophenyl)amino]carbonyl}amino)-1-benzofuran-2-yl]carbonyl}amino)(cyclohexyl)ethanoic acid], 7390 nM.
To `O=C(Nc1c(Cl)cccc1Cl)Nc1c(C(=O)N[C@H](C(=O)O)C2CCCCC2)oc2cc(Br)ccc12` [Example 327, (2S)-({[6-Bromo-3-({[(2,6-dichlorophenyl)amino]carbonyl}amino)-1-benzofuran-2-yl]carbonyl}amino)(cyclohexyl)ethanoic acid] belongs 9870 nM; to `Cc1cc(C)c(NC(=O)Nc2cc3ccccc3cc2C(=O)NCC2CCCCC2)c(C)c1` [Example 330, N-(cyclohexylmethyl)-3-({[(2,4,6-trimethylphenyl)amino]carbonyl}amino)-2-naphthalenecarboxamide], 14400 nM.
Regarding `O=C(O)CCN(Cc1ccccc1)C(=O)c1cc2ccccc2cc1NC(=O)Nc1c(Cl)cccc1Cl` [Example 331, N-{[3-({[(2,6-dichlorophenyl)amino]carbonyl}amino)-2-naphthalenyl]carbonyl}-N-(phenylmethyl)-beta-alanine], the IC50 is 2180 nM.
As for `O=C(O)CN(Cc1ccccc1)C(=O)c1cc2ccccc2cc1NC(=O)Nc1c(Cl)cc(Cl)cc1Cl` [Example 332, N-(phenylmethyl)-N-{[3-({[(2,4,6-trichlorophenyl)amino]carbonyl}amino)-2-naphthalenyl]carbonyl}glycine], the figure is 4350 nM.
To `O=C(Nc1cc2ccccc2cc1C(=O)N1CCCC(C(=O)O)C1)Nc1c(Cl)cccc1Cl` (centres unmarked) [Example 333, 1-{[3-({[(2,6-Dichlorophenyl)amino]carbonyl}amino)-2-naphthalenyl]carbonyl}-3-piperidinecarboxylic acid] belongs 9270 nM; to `Cc1cccc(C)c1NC(=O)Nc1cc2ccccc2cc1C(=O)N1CCC[C@H]1C(=O)O` [Example 334, 1-{[3-({[(2,6-dimethylphenyl)amino]carbonyl}amino)-2-naphthalenyl]carbonyl}-L-proline], 420 nM.
As for `Cc1cc(C)c(NC(=O)Nc2cc3ccccc3cc2C(=O)N[C@H](CC(=O)O)c2ccccc2)c(C)c1` [Example 336, (3R)-3-phenyl-3-({[3-({[(2,4,6-trimethylphenyl)amino]carbonyl}amino)-2-naphthalenyl]carbonyl}amino)propanoic acid], the figure is 610 nM; as for `Cc1cc(C)c(NC(=O)Nc2cc3ccccc3cc2C(=O)N[C@H](CC(=O)OC(C)(C)C)C2CCCCC2)c(C)c1` [Example 337, 1,1-dimethylethyl (3R)-3-cyclohexyl-3-({[3-({[(2,4,6-trimethylphenyl)amino]carbonyl}amino)-2-naphthalenyl]carbonyl}amino)propanoate], 5260 nM.
On to `Cc1cc(C)c(NC(=O)Nc2cc3ccccc3cc2C(=O)N[C@H](CC(=O)O)C2CCCCC2)c(C)c1` [Example 338, (3R)-3-cyclohexyl-3-({[3-({[(2,4,6-trimethylphenyl)amino]carbonyl}amino)-2-naphthalenyl]carbonyl}amino)propanoic acid], for which the midpoint of inhibition, the IC50, lay at 2130 nM.
To `Cc1cc(C)c(NC(=O)Nc2cc3ccccc3cc2C(=O)N[C@H](CC(=O)O)C(C)C)c(C)c1` [Example 339, (3R)-4-methyl-3-({[3-({[(2,4,6-trimethylphenyl)amino]carbonyl}amino)-2-naphthalenyl]carbonyl}amino)pentanoic acid] belongs 1560 nM.
As for `Cc1cc(C)c(NC(=O)Nc2cc3ccccc3cc2C(=O)N[C@H](c2nnn[nH]2)C(C)C)c(C)c1` [Example 340, N-[(1S)-2-methyl-1-(1H-tetrazol-5-yl)propyl]-3-({[(2,4,6-trimethylphenyl)amino]carbonyl}amino)-2-naphthalenecarboxamide], the figure is 340 nM; as for `Cc1cc(C)c(NC(=O)Nc2cc3ccccc3cc2C(=O)N[C@H](C#N)C2CCC(F)(F)CC2)c(C)c1` [Example 342, N—[(S)-cyano(4,4-difluorocyclohexyl)methyl]-3-({[(2,4,6-trimethylphenyl)amino]carbonyl}amino)-2-naphthalenecarboxamide], 8600 nM; as for `O=C(Nc1cc2ccccc2cc1C(=O)N[C@H](C(=O)O)C1CCCC1)Nc1c(Cl)cc(Cl)cc1Cl` [Example 343, (2S)-cyclopentyl({[3-({[(2,4,6-trichlorophenyl)amino]carbonyl}amino)-2-naphthalenyl]carbonyl}amino)ethanoic acid], 130 nM.
As for `Cc1cc(C)c(NC(=O)Nc2cc3ccccc3cc2C(=O)N[C@@H](CC(=O)OC(C)(C)C)C(=O)OC(C)(C)C)c(C)c1` [Example 353, bis(1,1-dimethylethyl) N-{[3-({[(2,4,6-trimethylphenyl)amino]carbonyl}amino)-2-naphthalenyl]carbonyl}-L-aspartate], the figure is 5080 nM; as for `Cc1cc(C)c(NC(=O)Nc2cc3ccccc3cc2C(=O)N[C@@H](CC(=O)O)C(=O)O)c(C)c1` [Example 354, N-{[3-({[(2,4,6-trimethylphenyl)amino]carbonyl}amino)-2-naphthalenyl]carbonyl}-L-aspartic acid], 61 nM.
On to `O=C(O)C[C@H](NC(=O)c1cc2ccccc2cc1NC(=O)Nc1c(Cl)cc(OC(F)(F)F)cc1Cl)C(=O)O` [Example 355, N-[(3-{[({2,6-dichloro-4-[(trifluoromethyl)oxy]phenyl}amino)carbonyl]amino}-2-naphthalenyl)carbonyl]-L-aspartic acid], for which the IC50 was 14 nM.
As for `Cc1cc(C)c(NC(=O)Nc2cc3ccccc3cc2C(=O)N[C@H](CC(=O)O)C(=O)O)c(C)c1` [Example 356, N-{[3-({[(2,4,6-trimethylphenyl)amino]carbonyl}amino)-2-naphthalenyl]carbonyl}-D-aspartic acid], the figure is 100 nM; as for `Cc1cc(C)c(NC(=O)Nc2cc3ccccc3cc2C(=O)N2CCC[C@@H]2C(=O)O)c(C)c1` [Example 357, 1-{[3-({[(2,4,6-trimethylphenyl)amino]carbonyl}amino)-2-naphthalenyl]carbonyl}-D-proline], 2470 nM.
To `Cc1cc(C)c(NC(=O)Nc2cc3ccccc3cc2C(=O)N[C@H](C(=O)O)[C@H]2CCCC(O)C2)c(C)c1` (stereo partly drawn) [Example 359, (2S)-[(1S)-3-hydroxycyclohexyl]({[3-({[(2,4,6-trimethylphenyl)amino]carbonyl}amino)-2-naphthalenyl]carbonyl}amino)ethanoic acid] belongs 6 nM; to `Cc1cc(C)c(NC(=O)Nc2cc3ccccc3cc2C(=O)N[C@H](C(=O)O)[C@H]2CCCC(OC(=O)C(F)(F)F)C2)c(C)c1` (stereo partly drawn) [Example 360, (2S)-{(1S)-3-[(trifluoroacetyl)oxy]cyclohexyl}({[3-({[(2,4,6-trimethylphenyl)amino]carbonyl}amino)-2-naphthalenyl]carbonyl}amino)ethanoic acid], 11 nM.
